Laboratory results taken from patent US8563616B2, “Desensitizing drug product” (priority 2009, dated 2013).
Like-named read-outs stand apart in the source and are kept apart here.

Tests used:
[1] = in the mixtures that formed a homogenous oil; cited from earlier work
[2] = Melt System III, cited from earlier work; for Percentage in aq: amount in aqueous phase/total amount in whole system × 100; for Percentage in oil: amount in oil phase/total amount in whole system × 100; for Conc in aq: g per 100 g of aqueous phase; for Conc in oil: g per 100 g of oil phase
[3] = pKa and ionization of lidocaine; type: physicochemical; conditions: pH 8.9
[4] = mixture containing 25% ethyl alcohol, 5% lidocaine, pH 9.2 phosphate buffer; cited from earlier work

| Structure (SMILES) | chemical stability [1] | Percentage in aq [2] | Percentage in oil [2] | Percentage in oil ([2]; listed as T) | Conc in aq [2] | Conc in oil [2] | ionized [3] | concentration of lidocaine in the oil [4] | Percentage in oil ([2]; listed as L) |
| --- | --- | --- | --- | --- | --- | --- | --- | --- | --- |
| Cc1ccc(C(C)C)c(O)c1 [Thymol, thymol] | chemically stable | 14.88% | approximately 85% | 85.13% | 0.09% | 10.60% | – | – | – |
| CCN(CC)CC(=O)Nc1c(C)cccc1C [Lidocaine, lidocaine] | – | 20.80% | approximately 80% | – | 1.09% | 87.00% | 10% | 73 % (w:w) | 79.20% |
